Test results reported in ChEMBL document CHEMBL4507276 (2021).

What was measured:
[1] = test system: Tyrosine-protein kinase ABL1 (Homo sapiens), P00519 [F317L]; settings: Compound concentration 1000.0 nM
[2] = biological target: Bone morphogenetic protein receptor type-2 (Homo sapiens) (UniProt Q13873); settings: Compound concentration 1000.0 nM
[3] = biological target: Mitogen-activated protein kinase 6 (Homo sapiens) (UniProt Q16659); settings: Compound concentration 1000.0 nM
[4] = biological target: Fibroblast growth factor receptor 3 (Homo sapiens) (UniProt P22607); settings: Compound concentration 1000.0 nM
[5] = biological target: T1, G protein-coupled receptor kinase 3 (Homo sapiens) (UniProt P35626); settings: Compound concentration 1000.0 nM
T1 sequence (whole entry): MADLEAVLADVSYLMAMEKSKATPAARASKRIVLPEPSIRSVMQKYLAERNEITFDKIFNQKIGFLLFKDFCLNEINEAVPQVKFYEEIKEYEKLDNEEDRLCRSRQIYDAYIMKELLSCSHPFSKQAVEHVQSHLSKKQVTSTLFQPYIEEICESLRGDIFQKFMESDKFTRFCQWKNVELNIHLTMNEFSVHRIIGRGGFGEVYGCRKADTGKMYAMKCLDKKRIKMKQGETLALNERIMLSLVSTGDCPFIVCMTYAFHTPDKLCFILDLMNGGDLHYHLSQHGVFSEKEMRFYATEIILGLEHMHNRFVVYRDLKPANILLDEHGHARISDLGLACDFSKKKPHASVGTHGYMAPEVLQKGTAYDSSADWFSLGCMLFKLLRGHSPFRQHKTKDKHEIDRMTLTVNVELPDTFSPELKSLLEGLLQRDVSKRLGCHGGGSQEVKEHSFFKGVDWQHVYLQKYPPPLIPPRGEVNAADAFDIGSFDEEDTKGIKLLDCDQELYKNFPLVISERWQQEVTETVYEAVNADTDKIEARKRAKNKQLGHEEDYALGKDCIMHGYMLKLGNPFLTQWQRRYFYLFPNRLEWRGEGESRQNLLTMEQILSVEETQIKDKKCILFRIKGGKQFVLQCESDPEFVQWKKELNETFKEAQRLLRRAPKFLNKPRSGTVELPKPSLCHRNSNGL

[6] = biological target: T2, Tyrosine-protein kinase ITK/TSK (Homo sapiens) (UniProt Q08881); settings: Compound concentration 1000.0 nM
T2 sequence (whole entry): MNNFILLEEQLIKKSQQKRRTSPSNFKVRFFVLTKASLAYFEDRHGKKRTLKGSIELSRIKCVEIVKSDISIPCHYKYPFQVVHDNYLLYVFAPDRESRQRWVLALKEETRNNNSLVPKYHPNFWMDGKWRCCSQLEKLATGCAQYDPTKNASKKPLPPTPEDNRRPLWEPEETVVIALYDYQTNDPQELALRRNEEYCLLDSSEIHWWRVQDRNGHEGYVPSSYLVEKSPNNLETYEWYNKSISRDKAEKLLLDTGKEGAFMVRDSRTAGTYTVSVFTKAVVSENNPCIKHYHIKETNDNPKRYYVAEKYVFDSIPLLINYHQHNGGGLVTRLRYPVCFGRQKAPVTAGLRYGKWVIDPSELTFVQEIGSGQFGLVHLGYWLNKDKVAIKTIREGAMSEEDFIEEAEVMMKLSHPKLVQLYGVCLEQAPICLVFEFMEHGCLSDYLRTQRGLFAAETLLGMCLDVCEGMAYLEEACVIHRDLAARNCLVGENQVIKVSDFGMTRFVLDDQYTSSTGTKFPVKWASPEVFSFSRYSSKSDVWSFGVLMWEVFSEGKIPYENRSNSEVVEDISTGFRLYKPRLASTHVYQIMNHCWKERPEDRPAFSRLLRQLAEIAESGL

[7] = biological target: Mast/stem cell growth factor receptor Kit (Homo sapiens) (UniProt P10721); settings: Compound concentration 1000.0 nM
[8] = biological target: Mitogen-activated protein kinase kinase kinase kinase 4 (Homo sapiens) (UniProt O95819); settings: Compound concentration 1000.0 nM
[9] = biological target: Dual specificity mitogen-activated protein kinase kinase 2 (Homo sapiens) (UniProt P36507); settings: Compound concentration 1000.0 nM
Sequence of Dual specificity mitogen-activated protein kinase kinase 2 (Homo sapiens) (P36507 whole entry): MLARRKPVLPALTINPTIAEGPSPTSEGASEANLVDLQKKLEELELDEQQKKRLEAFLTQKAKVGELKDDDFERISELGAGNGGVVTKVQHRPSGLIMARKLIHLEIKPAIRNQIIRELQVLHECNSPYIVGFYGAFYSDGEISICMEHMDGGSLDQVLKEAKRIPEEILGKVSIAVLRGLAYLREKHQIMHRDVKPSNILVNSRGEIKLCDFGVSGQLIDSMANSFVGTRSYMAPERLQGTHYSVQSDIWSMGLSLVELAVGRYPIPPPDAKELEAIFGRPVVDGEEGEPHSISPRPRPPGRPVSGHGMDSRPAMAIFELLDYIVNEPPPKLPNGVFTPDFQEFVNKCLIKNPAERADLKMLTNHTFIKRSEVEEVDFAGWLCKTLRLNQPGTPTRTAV

[10] = biological target: Mitogen-activated protein kinase kinase kinase 10 (Homo sapiens) (UniProt Q02779); settings: Compound concentration 1000.0 nM
[11] = biological target: Mitogen-activated protein kinase kinase kinase 11 (Homo sapiens) (UniProt Q16584); settings: Compound concentration 1000.0 nM
[12] = biological target: Serine/threonine-protein kinase PAK 4 (Homo sapiens) (UniProt O96013); settings: Compound concentration 1000.0 nM
[13] = test system: Phosphatidylinositol 4,5-bisphosphate 3-kinase catalytic subunit alpha isoform (Homo sapiens), P42336 [H1047Y]; settings: Compound concentration 1000.0 nM
Sequence of Phosphatidylinositol 4,5-bisphosphate 3-kinase catalytic subunit alpha isoform (Homo sapiens), P42336 [H1047Y] (P42336 whole entry H1047Y, canonical isoform): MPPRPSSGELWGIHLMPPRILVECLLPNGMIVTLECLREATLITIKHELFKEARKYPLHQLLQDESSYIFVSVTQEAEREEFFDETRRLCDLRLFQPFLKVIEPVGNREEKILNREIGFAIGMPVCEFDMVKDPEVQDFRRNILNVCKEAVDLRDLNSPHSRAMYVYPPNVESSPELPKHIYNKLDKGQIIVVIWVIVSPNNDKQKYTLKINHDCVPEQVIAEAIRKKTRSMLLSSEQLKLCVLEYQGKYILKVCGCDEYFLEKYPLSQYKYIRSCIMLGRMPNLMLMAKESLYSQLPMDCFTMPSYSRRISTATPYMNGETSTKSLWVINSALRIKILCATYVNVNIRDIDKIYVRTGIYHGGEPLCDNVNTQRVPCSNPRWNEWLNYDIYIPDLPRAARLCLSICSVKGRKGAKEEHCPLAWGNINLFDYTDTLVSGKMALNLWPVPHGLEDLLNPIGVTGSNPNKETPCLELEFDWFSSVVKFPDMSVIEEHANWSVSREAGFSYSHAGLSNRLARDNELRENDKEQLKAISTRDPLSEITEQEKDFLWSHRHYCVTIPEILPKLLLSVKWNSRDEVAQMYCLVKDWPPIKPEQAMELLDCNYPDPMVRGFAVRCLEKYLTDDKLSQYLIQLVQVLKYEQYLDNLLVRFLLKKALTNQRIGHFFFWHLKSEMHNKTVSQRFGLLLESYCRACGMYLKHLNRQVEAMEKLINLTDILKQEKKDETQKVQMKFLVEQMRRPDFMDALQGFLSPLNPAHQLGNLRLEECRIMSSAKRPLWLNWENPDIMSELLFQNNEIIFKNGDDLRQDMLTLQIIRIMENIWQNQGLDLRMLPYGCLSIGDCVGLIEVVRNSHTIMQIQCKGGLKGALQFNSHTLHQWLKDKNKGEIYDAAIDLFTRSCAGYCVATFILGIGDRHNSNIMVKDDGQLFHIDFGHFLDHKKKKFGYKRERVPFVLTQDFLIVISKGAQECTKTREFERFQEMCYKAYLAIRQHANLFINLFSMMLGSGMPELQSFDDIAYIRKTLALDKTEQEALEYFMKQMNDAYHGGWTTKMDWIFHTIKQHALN

[14] = biological target: Interferon-induced, double-stranded RNA-activated protein kinase (Homo sapiens) (UniProt P19525); settings: Compound concentration 1000.0 nM
Sequence of Interferon-induced, double-stranded RNA-activated protein kinase (Homo sapiens) (P19525 whole entry): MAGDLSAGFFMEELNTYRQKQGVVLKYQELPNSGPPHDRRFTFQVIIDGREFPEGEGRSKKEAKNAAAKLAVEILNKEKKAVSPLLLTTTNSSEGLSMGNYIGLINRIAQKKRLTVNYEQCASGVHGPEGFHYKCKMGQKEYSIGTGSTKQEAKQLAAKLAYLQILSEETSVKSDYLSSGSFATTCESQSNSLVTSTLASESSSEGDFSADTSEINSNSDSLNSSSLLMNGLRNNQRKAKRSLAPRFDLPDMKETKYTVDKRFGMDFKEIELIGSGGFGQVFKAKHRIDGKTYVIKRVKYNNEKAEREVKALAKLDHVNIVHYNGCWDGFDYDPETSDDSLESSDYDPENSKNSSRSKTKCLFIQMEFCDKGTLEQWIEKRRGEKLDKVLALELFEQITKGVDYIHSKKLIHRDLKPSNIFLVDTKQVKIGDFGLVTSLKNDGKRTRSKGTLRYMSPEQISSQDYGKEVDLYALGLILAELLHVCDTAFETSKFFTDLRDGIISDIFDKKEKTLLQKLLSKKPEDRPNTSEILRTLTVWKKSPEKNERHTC

[15] = biological target: Serine/threonine-protein kinase SIK3 (Homo sapiens) (UniProt Q9Y2K2); settings: Compound concentration 1000.0 nM
Sequence of Serine/threonine-protein kinase SIK3 (Homo sapiens) (Q9Y2K2 whole entry, looked up): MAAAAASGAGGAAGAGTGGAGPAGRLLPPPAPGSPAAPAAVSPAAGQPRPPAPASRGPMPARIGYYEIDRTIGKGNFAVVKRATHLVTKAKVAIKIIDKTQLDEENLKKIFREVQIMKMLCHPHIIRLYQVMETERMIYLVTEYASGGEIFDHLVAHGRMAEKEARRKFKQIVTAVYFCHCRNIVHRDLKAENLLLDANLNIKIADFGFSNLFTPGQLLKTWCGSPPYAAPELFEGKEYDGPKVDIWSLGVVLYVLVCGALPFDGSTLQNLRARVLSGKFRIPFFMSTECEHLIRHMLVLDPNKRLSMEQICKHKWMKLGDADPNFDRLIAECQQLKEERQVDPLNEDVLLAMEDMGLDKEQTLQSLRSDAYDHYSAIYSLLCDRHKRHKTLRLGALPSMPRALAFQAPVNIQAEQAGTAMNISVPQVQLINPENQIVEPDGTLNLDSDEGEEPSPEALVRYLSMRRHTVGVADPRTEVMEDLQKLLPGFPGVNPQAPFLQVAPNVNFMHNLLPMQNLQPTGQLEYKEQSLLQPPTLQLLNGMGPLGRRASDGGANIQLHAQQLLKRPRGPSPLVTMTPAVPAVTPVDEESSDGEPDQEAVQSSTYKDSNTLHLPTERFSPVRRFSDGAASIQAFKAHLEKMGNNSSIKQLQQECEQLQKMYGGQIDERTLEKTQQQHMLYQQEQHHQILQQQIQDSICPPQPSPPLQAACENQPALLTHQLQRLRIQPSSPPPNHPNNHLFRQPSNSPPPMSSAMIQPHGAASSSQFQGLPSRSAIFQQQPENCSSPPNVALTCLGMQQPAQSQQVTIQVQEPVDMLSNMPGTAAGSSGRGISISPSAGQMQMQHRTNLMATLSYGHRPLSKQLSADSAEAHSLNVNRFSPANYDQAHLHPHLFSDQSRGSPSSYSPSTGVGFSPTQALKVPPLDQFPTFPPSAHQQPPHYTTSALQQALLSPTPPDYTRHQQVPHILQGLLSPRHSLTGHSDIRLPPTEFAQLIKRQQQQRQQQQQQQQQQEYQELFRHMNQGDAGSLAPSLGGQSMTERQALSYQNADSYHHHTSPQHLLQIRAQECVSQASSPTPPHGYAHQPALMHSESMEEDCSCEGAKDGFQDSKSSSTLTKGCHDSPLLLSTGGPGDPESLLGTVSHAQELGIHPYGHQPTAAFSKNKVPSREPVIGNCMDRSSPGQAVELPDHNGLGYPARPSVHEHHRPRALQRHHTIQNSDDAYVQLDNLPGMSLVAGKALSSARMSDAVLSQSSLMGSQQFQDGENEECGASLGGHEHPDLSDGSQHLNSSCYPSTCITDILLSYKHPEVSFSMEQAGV

[16] = test system: Proto-oncogene tyrosine-protein kinase receptor Ret (Homo sapiens), P07949 [V804M]; settings: Compound concentration 1000.0 nM
Sequence of Proto-oncogene tyrosine-protein kinase receptor Ret (Homo sapiens), P07949 [V804M] (P07949 whole entry V804M): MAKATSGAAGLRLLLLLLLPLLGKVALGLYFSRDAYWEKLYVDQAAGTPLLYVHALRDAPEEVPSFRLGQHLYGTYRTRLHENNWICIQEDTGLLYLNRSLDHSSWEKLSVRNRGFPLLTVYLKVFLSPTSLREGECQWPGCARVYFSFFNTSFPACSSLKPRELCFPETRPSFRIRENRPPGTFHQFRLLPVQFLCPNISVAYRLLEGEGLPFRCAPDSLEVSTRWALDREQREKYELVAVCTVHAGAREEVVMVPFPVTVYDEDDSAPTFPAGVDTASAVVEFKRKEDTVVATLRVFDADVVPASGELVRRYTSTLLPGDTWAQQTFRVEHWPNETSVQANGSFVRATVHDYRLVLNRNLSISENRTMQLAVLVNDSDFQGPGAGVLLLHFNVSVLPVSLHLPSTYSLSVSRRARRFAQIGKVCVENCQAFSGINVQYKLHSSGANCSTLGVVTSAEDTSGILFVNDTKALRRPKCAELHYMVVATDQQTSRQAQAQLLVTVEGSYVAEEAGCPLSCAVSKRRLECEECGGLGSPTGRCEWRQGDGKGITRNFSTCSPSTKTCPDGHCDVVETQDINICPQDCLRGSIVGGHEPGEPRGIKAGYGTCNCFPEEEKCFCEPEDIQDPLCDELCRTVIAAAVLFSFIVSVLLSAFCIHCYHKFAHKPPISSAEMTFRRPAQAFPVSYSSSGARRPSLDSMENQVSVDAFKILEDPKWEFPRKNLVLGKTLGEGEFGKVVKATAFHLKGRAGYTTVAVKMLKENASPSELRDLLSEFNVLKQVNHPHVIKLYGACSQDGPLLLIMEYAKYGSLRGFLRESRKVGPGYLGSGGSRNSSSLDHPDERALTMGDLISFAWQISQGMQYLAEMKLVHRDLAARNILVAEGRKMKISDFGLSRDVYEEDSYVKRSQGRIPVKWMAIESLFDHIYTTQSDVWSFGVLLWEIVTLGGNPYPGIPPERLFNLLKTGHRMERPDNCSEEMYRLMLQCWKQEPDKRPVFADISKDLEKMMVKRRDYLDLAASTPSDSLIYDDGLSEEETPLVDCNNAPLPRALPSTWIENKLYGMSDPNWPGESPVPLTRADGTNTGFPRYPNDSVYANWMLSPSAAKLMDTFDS

[17] = biological target: T3, Serine/threonine-protein kinase Sgk2 (Homo sapiens) (UniProt Q9HBY8); settings: Compound concentration 1000.0 nM
T3 sequence (whole entry): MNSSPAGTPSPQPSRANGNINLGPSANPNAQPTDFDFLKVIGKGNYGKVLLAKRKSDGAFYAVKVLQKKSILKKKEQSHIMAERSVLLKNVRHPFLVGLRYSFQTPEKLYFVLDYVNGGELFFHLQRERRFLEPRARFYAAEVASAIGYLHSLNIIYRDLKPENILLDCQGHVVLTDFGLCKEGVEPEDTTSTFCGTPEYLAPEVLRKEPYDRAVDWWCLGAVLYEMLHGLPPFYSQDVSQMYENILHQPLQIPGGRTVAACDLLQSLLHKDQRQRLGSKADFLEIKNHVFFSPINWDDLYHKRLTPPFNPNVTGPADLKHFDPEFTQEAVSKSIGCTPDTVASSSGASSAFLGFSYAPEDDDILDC

[18] = biological target: Tyrosine-protein kinase Srms (Homo sapiens) (UniProt Q9H3Y6); settings: Compound concentration 1000.0 nM
[19] = biological target: Serine/threonine-protein kinase 33 (Homo sapiens) (UniProt Q9BYT3); settings: Compound concentration 1000.0 nM
[20] = biological target: Serine/threonine-protein kinase WNK4 (Homo sapiens) (UniProt Q96J92); settings: Compound concentration 1000.0 nM
[21] = biological target: Delta-type opioid receptor (Homo sapiens) (UniProt P41143); settings: Compound concentration 10.0 uM
Sequence of Delta-type opioid receptor (Homo sapiens) (P41143 whole entry): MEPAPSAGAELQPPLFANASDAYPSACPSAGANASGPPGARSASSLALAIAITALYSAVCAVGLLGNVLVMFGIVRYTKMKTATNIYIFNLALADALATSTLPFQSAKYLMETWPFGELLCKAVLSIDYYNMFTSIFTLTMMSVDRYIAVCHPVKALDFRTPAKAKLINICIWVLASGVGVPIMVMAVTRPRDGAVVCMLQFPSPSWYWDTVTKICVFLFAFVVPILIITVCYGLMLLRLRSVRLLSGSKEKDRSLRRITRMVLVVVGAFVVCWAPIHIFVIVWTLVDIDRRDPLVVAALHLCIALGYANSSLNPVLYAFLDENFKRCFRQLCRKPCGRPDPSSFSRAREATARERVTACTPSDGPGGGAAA

CN(C)C(=O)Cn1cc(-c2nc(C3(c4ccc(-c5cnc(N)nc5)cc4)CC3)no2)cn1 [BI 0153]
inactive: residual activity [1] 85% | residual activity [2] 93% | residual activity [3] 91% | residual activity [4] 100% | residual activity [5] 69% | residual activity [6] 92% | residual activity [7] 77% | residual activity [8] 66% | residual activity [9] 80% | residual activity [10] 62% | residual activity [11] 87% | residual activity [12] 100% | residual activity [13] 94% | residual activity [14] 100% | residual activity [15] 100% | residual activity [16] 100% | residual activity [17] 100% | residual activity [18] 73% | residual activity [19] 99% | residual activity [20] 80% | inhibition [21] -5.53%

CN(C)C(=O)Cn1cc(-c2nc([C@@](C)(c3ccc(-c4cnc(N)nc4)cc3)C3CC3)no2)cn1 [BI 665915]
inactive: residual activity [1] 88% | residual activity [2] 94% | residual activity [3] 91% | residual activity [4] 94% | residual activity [5] 86% | residual activity [6] 99% | residual activity [7] 86% | residual activity [8] 90% | residual activity [9] 86% | residual activity [10] 83% | residual activity [11] 77% | residual activity [12] 96% | residual activity [13] 87% | residual activity [14] 100% | residual activity [15] 70% | residual activity [16] 97% | residual activity [17] 83% | residual activity [18] 93% | residual activity [19] 100% | residual activity [20] 93% | inhibition [21] -7.13%
